Measurements as given in ChEMBL document CHEMBL4507319 (2021).

Assays:
[1] = system: Receptor-type tyrosine-protein kinase FLT3 (Homo sapiens), P36888 [D835V]; settings: Compound concentration 1000.0 nM
[2] = target: T1, Serine/threonine-protein kinase ICK (Homo sapiens) (UniProt Q9UPZ9); settings: Compound concentration 1000.0 nM
T1 sequence (whole entry): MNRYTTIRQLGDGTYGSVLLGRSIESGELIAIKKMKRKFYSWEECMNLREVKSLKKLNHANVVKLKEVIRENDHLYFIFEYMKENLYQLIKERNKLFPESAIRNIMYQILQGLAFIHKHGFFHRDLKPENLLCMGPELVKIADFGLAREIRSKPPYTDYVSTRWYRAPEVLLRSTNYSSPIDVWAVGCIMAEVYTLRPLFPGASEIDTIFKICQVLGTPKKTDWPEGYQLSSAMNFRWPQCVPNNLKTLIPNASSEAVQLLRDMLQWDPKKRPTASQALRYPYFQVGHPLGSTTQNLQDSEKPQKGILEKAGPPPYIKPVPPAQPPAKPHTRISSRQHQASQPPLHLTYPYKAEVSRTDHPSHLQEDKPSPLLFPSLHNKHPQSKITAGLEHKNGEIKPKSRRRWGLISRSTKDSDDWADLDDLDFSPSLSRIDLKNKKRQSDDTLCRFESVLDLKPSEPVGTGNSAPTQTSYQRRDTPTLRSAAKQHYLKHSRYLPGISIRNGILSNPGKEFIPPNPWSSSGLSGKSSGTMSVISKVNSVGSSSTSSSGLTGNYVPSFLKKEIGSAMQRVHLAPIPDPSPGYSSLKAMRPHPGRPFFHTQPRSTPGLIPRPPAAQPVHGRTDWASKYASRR

[3] = target: Muscarinic acetylcholine receptor M4 (Homo sapiens) (UniProt P08173); settings: Compound concentration 10.0 uM
Sequence of Muscarinic acetylcholine receptor M4 (Homo sapiens) (P08173 whole entry): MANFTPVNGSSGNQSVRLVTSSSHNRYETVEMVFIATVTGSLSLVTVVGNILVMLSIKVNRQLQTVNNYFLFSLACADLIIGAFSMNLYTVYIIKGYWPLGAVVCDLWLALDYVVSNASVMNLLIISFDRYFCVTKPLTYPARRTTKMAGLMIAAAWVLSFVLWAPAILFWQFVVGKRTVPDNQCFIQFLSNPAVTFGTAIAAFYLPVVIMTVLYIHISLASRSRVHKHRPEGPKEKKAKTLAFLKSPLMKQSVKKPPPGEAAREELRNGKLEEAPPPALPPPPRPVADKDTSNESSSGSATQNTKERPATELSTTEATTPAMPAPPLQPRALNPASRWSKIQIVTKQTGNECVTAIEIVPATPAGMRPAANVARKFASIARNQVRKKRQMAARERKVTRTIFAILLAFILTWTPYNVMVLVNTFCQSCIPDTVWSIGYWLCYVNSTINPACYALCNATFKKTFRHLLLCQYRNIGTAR

[4] = target: Cyclin-dependent kinase 2 homolog (Plasmodium falciparum (isolate 3D7)) (UniProt P61075); settings: Compound concentration 1000.0 nM
Sequence of Cyclin-dependent kinase 2 homolog (Plasmodium falciparum (isolate 3D7)) (P61075 whole entry): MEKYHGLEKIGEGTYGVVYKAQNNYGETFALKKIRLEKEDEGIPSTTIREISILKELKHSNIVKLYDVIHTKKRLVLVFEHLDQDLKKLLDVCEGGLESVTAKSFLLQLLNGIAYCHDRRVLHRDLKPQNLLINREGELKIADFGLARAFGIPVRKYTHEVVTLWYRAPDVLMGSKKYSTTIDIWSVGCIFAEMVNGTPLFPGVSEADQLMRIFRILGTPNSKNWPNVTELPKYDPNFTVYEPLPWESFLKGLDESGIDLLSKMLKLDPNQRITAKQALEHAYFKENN

[5] = target: T2, Mitogen-activated protein kinase kinase kinase 7 (Homo sapiens) (UniProt O43318); settings: Compound concentration 1000.0 nM
T2 sequence (whole entry): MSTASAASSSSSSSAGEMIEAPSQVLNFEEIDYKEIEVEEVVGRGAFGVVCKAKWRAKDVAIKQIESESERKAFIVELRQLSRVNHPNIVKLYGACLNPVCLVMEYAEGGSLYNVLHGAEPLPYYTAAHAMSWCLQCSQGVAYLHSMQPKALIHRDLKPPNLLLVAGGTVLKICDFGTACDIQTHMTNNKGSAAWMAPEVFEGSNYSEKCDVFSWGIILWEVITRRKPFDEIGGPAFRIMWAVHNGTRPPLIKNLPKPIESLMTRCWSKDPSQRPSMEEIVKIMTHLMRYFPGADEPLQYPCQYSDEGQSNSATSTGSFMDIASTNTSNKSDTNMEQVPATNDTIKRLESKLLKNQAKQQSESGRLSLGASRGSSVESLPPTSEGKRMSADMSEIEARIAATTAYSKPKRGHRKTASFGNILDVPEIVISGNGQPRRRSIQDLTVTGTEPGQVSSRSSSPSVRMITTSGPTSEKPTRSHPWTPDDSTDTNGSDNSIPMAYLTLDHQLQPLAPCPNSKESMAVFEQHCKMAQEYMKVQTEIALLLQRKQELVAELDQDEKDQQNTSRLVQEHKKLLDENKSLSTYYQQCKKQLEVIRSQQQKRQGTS

[6] = target: T3, Tyrosine-protein kinase Mer (Homo sapiens) (UniProt Q12866); settings: Compound concentration 1000.0 nM
T3 sequence (whole entry): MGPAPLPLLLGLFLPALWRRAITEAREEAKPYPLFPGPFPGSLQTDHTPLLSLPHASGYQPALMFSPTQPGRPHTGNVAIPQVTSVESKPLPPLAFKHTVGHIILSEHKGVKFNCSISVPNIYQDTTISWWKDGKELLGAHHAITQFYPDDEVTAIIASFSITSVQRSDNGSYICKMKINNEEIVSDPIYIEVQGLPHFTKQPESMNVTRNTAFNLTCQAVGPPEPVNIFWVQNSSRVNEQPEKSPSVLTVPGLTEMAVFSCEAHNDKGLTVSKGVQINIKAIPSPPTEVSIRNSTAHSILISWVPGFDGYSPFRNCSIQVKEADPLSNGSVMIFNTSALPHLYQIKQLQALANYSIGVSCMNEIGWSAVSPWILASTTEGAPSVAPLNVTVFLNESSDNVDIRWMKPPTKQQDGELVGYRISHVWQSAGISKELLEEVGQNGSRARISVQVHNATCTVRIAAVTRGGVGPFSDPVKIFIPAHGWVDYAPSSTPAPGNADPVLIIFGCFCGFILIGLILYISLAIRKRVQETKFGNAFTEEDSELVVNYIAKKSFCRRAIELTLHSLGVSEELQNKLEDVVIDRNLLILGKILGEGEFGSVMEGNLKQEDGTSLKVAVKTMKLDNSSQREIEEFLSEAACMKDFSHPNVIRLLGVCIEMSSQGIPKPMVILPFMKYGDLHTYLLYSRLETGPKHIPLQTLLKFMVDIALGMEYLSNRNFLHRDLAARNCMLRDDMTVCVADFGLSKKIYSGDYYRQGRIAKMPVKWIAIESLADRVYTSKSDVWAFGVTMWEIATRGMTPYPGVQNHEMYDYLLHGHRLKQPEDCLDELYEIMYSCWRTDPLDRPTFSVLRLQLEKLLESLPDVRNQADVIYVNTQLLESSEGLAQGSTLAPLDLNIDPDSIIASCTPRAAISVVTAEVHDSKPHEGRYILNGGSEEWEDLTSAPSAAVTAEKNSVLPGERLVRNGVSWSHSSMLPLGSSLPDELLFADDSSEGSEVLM

[7] = target: Serine/threonine-protein kinase WNK3 (Homo sapiens) (UniProt Q9BYP7); settings: Compound concentration 1000.0 nM
Sequence of Serine/threonine-protein kinase WNK3 (Homo sapiens) (Q9BYP7 whole entry): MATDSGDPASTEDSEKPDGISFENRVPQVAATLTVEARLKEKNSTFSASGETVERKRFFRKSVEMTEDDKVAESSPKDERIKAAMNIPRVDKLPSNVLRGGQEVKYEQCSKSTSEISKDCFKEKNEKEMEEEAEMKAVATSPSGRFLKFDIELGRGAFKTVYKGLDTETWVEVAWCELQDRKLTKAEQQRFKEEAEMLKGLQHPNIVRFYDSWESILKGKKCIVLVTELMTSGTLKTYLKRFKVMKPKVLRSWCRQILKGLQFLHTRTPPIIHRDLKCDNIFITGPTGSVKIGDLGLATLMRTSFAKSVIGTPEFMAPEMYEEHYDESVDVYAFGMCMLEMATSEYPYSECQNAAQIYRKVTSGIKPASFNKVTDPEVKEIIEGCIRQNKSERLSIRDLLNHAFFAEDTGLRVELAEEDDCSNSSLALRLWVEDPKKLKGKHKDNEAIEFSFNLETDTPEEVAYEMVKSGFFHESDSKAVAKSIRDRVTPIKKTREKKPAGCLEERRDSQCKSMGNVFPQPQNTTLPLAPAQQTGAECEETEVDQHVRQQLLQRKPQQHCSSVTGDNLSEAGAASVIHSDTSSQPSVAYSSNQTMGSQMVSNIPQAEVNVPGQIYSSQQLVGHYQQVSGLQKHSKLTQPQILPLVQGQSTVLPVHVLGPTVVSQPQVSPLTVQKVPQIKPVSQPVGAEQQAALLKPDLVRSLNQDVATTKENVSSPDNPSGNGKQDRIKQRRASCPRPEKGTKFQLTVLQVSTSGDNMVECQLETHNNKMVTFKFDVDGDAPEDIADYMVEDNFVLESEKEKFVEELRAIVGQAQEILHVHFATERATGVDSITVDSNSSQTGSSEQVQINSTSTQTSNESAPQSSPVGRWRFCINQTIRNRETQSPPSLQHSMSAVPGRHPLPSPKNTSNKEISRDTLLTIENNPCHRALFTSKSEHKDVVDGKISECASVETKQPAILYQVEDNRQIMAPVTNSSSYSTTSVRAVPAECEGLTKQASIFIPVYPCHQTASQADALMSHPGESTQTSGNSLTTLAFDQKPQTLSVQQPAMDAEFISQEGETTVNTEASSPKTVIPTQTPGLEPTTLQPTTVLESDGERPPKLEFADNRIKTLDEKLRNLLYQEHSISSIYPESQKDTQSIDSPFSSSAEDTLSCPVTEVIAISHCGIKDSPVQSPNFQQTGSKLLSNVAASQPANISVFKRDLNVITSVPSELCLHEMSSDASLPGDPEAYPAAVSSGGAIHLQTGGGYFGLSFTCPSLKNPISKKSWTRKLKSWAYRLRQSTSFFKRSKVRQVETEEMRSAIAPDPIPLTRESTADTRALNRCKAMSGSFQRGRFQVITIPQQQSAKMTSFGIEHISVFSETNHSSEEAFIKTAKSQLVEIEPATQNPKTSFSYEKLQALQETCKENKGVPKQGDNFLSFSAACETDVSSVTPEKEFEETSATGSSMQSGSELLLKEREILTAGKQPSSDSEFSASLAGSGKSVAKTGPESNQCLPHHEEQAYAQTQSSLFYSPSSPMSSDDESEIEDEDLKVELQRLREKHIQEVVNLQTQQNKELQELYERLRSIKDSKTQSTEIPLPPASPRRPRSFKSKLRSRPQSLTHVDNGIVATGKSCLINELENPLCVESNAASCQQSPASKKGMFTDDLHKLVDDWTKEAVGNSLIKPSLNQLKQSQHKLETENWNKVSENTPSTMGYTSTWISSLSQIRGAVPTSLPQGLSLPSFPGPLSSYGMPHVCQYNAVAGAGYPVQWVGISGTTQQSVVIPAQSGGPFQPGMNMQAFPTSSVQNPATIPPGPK

Compound | residual activity [1] [%] | residual activity [2] [%] | inhibition [3] [%] | residual activity [4] [%] | residual activity [5] [%] | residual activity [6] [%] | residual activity [7] [%]
CC1=C(C#N)C(c2ccc3c(c2)c(NC(=O)c2ccccc2C)nn3C)C(C#N)=C(C)N1 [BAY-974] | 90 | 97 | 6.87 | 84 | 74 | 100 | 82
CCc1ccccc1C(=O)Nc1n[nH]c2c(C)c(F)c(C3C(C#N)=C(C)N(C)C(C)=C3C#N)cc12 [BAY-3827] | 3.2 | 100 | 8.27 | 100 | 92 | 80 | 90
